Converted amounts (≈) assume the structure as drawn. Where two headings read alike, the source gives them in different places.
Columns and labels:
[1] = test system: green rice leafhoppers (Nephotettix cincticeps Uhler); experiment: Mortality test with green rice leafhoppers by topical application method; details: Nephotettix cincticeps, in Oryza sativa, 24 h; for mortality at 10 ng: read-out: Pesticidal effect, green rice leafhopper
Procedure: Mortality test with green rice leafhoppers (Nephotettix cincticeps Uhler) by topical application method
Then, the insects were kept at 25° C. with access to rice plant seedlings. The insects were used in groups of 15 individuals each.

[2] = test system: rice stem borers (Chilo suppressalis Walker); experiment: Mortality test with rice stem borers by topical application method; assay type: in vivo; details: 24 h; for mortality at 0.001 mg: read-out: Pesticidal effect, rice stem borer
Procedure: Mortality test with rice stem borers (Chilo suppressalis Walker) by topical application method
Using a microsyringe, 0.5 μl of the above solution was applied to the thoracic abdominal region of each final-instar larva of rice stem borer (Chilo suppressalis Walker). […] The test larvae were used in groups of 20 individuals each.

[3] = test system: tobacco cutworms (Prodenia litura Fabricius); experiment: Mortality test with tobacco cutworms by topical application method; assay type: in vivo; details: 24 h
Procedure: Mortality test with tobacco cutworms (Prodenia litura Fabricius) by topical application method
Using a microsyringe, 0.5 μl of the above solution was dripped onto the thoracic adbominal region of each of 3-instar tobacco cutworm (Prodenia litura Fabricius) larvae. […] The test larvae were used in groups of 20 individuals each.

[4] = Fish toxicity test with guppies; assay type: in vivo, Lebistes reticulatus; details: guppy, water, guppies, 20° C., read-out: TLm (48 hrs.)
Procedure: (§1) Fish toxicity test with guppies (Lebistes reticulatus)
(§2) To 5 liters of water were added 250 mg of Sorpol SM-200 (trademark, Toho Chemical Co., Ltd.) as a surfactant and 2.5 ml of an acetone solution containing one of the test compounds in a predetermined concentration. The mixture was stirred thoroughly to prepare a test water. Ten female guppies (Lebistes reticulatus) of from 3 to 4 months of age were released into the test water which was maintained at 20° C. and the TLm (median tolerance limit, ppm) was determined.

[5] = test system: guppies (Lebistes reticulatus); experiment: Fish toxicity test with guppies; assay type: in vivo; details: Table 1; 48 hrs.
Procedure: as §1, §2

[6] = Fish toxicity test with carp; assay type: in vivo, Cyprinus carpio L; details: carp, water, 48 hrs., 21±1° C.; read-out: TLm, Carp (48 hrs.)
Procedure: Fish toxicity test with carp (Cyprinus carpio L)
An acetone solution of one of the test compounds as mentioned in Table 10 and Tween-20 (the same surfactant as mentioned hereinbefore) was prepared. To 50 liters of water (30 cm deep) in a glass tank was added the above acetone solution. The mixture was stirred thoroughly to prepare an aqueous solution containing the test compound in a predetermined concentration. This was used as a test water. Five carps (Cyprinus carpio L) with a body weight of about 6 g and a body length of about 6 cm were released into each test water which was maintained at 21±1° C. After 48 hours, the test fish was examined for death. The TLm (median tolerance limit, ppm) was determined. The test water was moderately aerated.

[7] = test system: carp and water flea; experiment: Fish toxicity ranking according to Japanese regulations; set-up: species or system Cyprinus carpio L; Daphnia pulex; details: from TLm for carp and water flea
Procedure: The above ranking with symbols A, B and C were determined according to Japanese regulations relative to application of agricultural chemicals, and these symbols are defined as follows: […]
A: TLm (48 hrs.) value >10 ppm for carp and TLm (3 hrs.) value >0.5 ppm for water flea, wherein toxicity to fishes is not observed by usual application.
B: TLm (48 hrs.) value 10-0.5 ppm for carp; or TLm (48 hrs.) value >10 ppm for carp and TLm (3 hrs.) value <0.5 ppm for water flea, wherein appreciable toxicity to fishes is not observed by usual application but may be observed when applied to wide area at one time.
C: TLm (48 hrs.) value <0.5 ppm for carp, wherein toxicity to fishes is so strongly observed by usual application that both the application method and application area are strictly restricted.

[8] = test system: houseflies (Musca domestica); experiment: Mortality test with houseflies by topical application method; details: 24 h; for mortality at 0.001 mg: read-out: Pesticidal effect, housefly
Procedure: Mortality test with houseflies (Musca domestica) by topical application method
Each of the compounds according to this invention and the control compounds (Table 2) was accurately weighted and a 0.1% solution of each sample in acetone was prepared. Female adult houseflies (Musca domestica) resistant to organophosphorus pesticides, were anesthetized with ether and 0.5 μl or 1.0 μl of the above solution was micropipetted onto the prothoracic dorsal region of each insect. The insects were then put in a high-walled dish together with feed and the dish was covered with a wire-mesh cover and kept at a temperature of 25° C. The test insects were used in groups of 30 individuals each. After 24 hours the insects were examined for deaths and the percent mortality was calculated.

[9] = Toxicity test with water-fleas; assay type: in vivo, Daphnia pulex; details: water, 25±1° C., read-out: TLm, Water-flea (6 hrs.)
Procedure: Toxicity test with water-fleas (Daphnia pulex)
An acetone solution of one of the test compounds as mentioned in Table 10 and Tween-20 (the same surfactant as mentioned hereinbefore) was prepared. To 100 ml of water in a high-walled dish (9 cm in diameter, 7 cm deep) was added the above acetone solution. The mixture was stirred thoroughly to prepare an aqueous solution containing the test compound in a predetermined concentration. This was used as a test water. Twenty water-fleas (Daphnia pulex) were released into each test water which was maintained at 25±1° C. After 6 hours, the water-fleas were examined for deaths. The TLm (median tolerance limit, ppm) was determined.

[10] = test system: brown planthoppers (Nilaparvata lugens Stal); experiment: Utility Example-1: LC50 on adult brown planthoppers on dipped rice plants; assay type: in vivo; details: Nilaparvata lugens, 24 h, 25° C., read-out: Pesticidal activity LC50
Procedure: A 1% emulsifiable concentrate of each test compound as prepared by the procedure described in Formulation Example 2 was diluted with water to prepare a test solution of predetermined concentration.
Rice plants, 4 weeks after sowing (cultivated in a pot 6 cm in diameter, 7 seedlings) were dipped in the above solution and after allowing them to dry in the air, the pot was covered with a wire-mesh cage. Then, 30 adult brown planthoppers (Nilaparvata lugens Stal) were released into the cage and the pot was kept in a constant-temperature chamber at 25° C.

[11] = Fish toxicity safety factor (TLm divided by maximum concentration in cover water); set-up: species or system carp; details: in vivo, TLm / maximum concentration in cover water at LC50 application (100 l per 10 ares, 5 cm depth)
Procedure: To further confirm the low toxicity to fish and high pesticidal activity of Compounds (1) and (2) according to this invention as evidenced by the fish toxicity tests with carps and the above tests, fish toxicity safety factors were calculated from the fish toxicity and pesticidal test data. These fish toxicity safety factors are indicators of safety to fish inhabiting a paddy field to which Compounds (1) and (2) may be actually applied for pest control purposes.
It is first assumed that such a pesticidal solution would normally be applied at the rate of 100 l per 10 ares of paddy field. It is also assumed that a solution (100 l) corresponding to the LC50 of the compounds would be applied to 10 ares of a paddy field carrying a cover water with a depth of 5 cm above ground surface and that all the solution would then find its way into the cover water. The expected maximum concentration of the compound in the cover water is then calculated. The fish toxicity safety factor of a pesticidal compound is defined as the value obtained by dividing the TLm (ppm) of the particular compound by the maximum concentration of the compound in cover water. The meaning of the value of the fish toxicity safety factor being one (1) is that the maximum concentration of the particular compound in cover water corresponds to the TLm of said compound. It is understood that when the pesticidal compound having a fish toxicity safety factor value of less than one (1) is applied to a paddy field, it has a risk of destroying the fish inhabiting there, and that the higher the safety factor value, the higher is the safety of the compound to fish.
This fish toxicity safety factor will now be explained in further detailed by taking the trans-isomer of Compound (2) of this invention as an example.
On the other hand, the toxicity to fish of this compound is TLm >10 ppm. Therefore, by dividing the TLm (i.e. >10 ppm) by the above cover water maximum concentration (i.e. 0.36 ppm), we obtain a fish toxicity safety factor of >28. Thus, the concentration of the trans-isomerof Compound (2) which kills 50% of pests corresponds to less than 1/28 of the concentration of the same isomer which kills 50% of fish. In other words, this means that the trans-isomer of Compound (2) is extremely safe to fish.

[12] = Fish toxicity test with killifish; assay type: in vivo, Orizias latipes; details: water, killifish, 25±1° C., read-out: TLm (48 hrs.)
Procedure: Fish toxicity test with killifish (Orizias latipes)
An acetone solution of one of the test compounds as mentioned in Table 8 was prepared by adding said test compound to 15 ml of acetone. To 10 liters of water was added a predetermined amount of the above acetone solution and the mixture was stirred thoroughly to prepare an aqueous solution containing the test compound in a predetermined concentration. This was used as a test water. After the each test water was moderately aerated, ten killifishes (Orizias latipes) with a body weight of about 0.25 g and a body length of about 2.5 cm were released into said each test water which was maintained at 25±1° C. After 48 hours, the test fish was examined for death. The TLm (median tolerance limit, ppm) was determined.

[13] = read-out: Pesticidal effect, tobacco cutworm

Structure (SMILES)	mortality at 0.01 µg/female [1] [%]	mortality at 0.1 µg/female [1] [%]	mortality at 1 µg/female [1] [%]	mortality at 10 ng [1] [%]	mortality at 1 µg/larva [2] [%]	mortality at 10 µg/larva [2] [%]	mortality at 0.001 mg [2] [%]	mortality at 0.0001 mg [3, 13] [%]	LC50 at 48 h [4] [µg/mL]	Toxicity to fish TLm, guppy [5] [ppm]	LC50 at 48 h [6] [µg/mL]	Ranking [7]	mortality at 0.5 µg/female [8] [%]	mortality at 1 µg/female [8] [%]	mortality at 0.001 mg [8] [%]	LC50 at 6 h [9] [µg/mL]	LC50 [10] [µg/mL]	selectivity ratio [11]	mortality at 0.0001 mg [3] [%]	LC50 at 48 h [12] [µg/mL]
CC1(C)C(C=C(Br)Br)C1C(=O)OC(C#N)c1cccc(Oc2ccccc2)c1 (centres unmarked) [Compound (D), Decamethrin]	100	100	100	100	100	100	100	100	< 0.5	< 0.5	0.0051 (≈ 0.0101 µM)	C (TLm (48 hrs.) value <0.5 ppm for carp, wherein toxicity to fishes is so strongly observed by usual application that both the application method and application area are strictly restricted.)	100	100	100					
CC1(C)[C@H](C(=O)OC(C#N)c2cccc(Oc3ccc(Cl)cc3)c2)[C@@H]1C=C(Cl)Cl (relative stereo) [Compound (G) cis-]					40	100					0.013 (≈ 0.0288 µM)	C (TLm (48 hrs.) value <0.5 ppm for carp, wherein toxicity to fishes is so strongly observed by usual application that both the application method and application area are strictly restricted.)				5 (≈ 11.1 µM)	620 (≈ 1380 µM)	0.01		
CC1(C)C(C=C(Cl)Cl)C1C(=O)OCc1cccc(Oc2ccc(Cl)cc2)c1 (stereo not drawn) [Compound (1) cis-/trans- = 20:80]											2.6 (≈ 6.11 µM)	B (TLm (48 hrs.) value 10-0.5 ppm for carp; or TLm (48 hrs.) value >10 ppm for carp and TLm (3 hrs.) value <0.5 ppm for water flea, wherein appreciable toxicity to fishes is not observed by usual application but may be observed when applied to wide area at one time.)				> 40	520 (≈ 1220 µM)	2.5		
CC1(C)[C@H](C=C(Cl)Cl)[C@H]1C(=O)OC(C#N)c1cccc(Oc2ccc(Cl)cc2)c1 (relative stereo) [Compound (G) trans-]					85	100					0.09 (≈ 0.2 µM)	C (TLm (48 hrs.) value <0.5 ppm for carp, wherein toxicity to fishes is so strongly observed by usual application that both the application method and application area are strictly restricted.)				1.7 (≈ 3.77 µM)	380 (≈ 843 µM)	0.12		
CC1(C)C(C=C(Cl)Cl)C1C(=O)OC(C#N)c1cccc(Oc2ccc(Cl)cc2)c1 (stereo not drawn) [Compound (G) cis-/trans- = 50:50]	100	100	100	100	90	100	90	65	< 1	< 1.0	0.04 (≈ 0.0887 µM)	C (TLm (48 hrs.) value <0.5 ppm for carp, wherein toxicity to fishes is so strongly observed by usual application that both the application method and application area are strictly restricted.)	100	100	100		450 (≈ 998 µM)	0.04	65	0.15 (≈ 0.333 µM)
